Test results from patent US11793801B2, “Treatment of pain and neurological conditions” (BioCorRx, Inc., priority 2020, dated 2023).
Where two headings read alike, the source gives them in different places.

Columns and labels:
[1] = system: Sigma opiate sites; test: in vitro pharmacology at Sigma sites; type: binding
[2] = system: morphine addicted rats; test: opioid withdrawal signs in morphine addicted rats; type: in vivo
[3] = biological target: T1, cholinergic muscarinic receptor 1 (Homo sapiens, UniProt P11229); test: in vitro antagonistic activity, muscarinic 1; type: biochemical
T1 sequence (P11229 1-460): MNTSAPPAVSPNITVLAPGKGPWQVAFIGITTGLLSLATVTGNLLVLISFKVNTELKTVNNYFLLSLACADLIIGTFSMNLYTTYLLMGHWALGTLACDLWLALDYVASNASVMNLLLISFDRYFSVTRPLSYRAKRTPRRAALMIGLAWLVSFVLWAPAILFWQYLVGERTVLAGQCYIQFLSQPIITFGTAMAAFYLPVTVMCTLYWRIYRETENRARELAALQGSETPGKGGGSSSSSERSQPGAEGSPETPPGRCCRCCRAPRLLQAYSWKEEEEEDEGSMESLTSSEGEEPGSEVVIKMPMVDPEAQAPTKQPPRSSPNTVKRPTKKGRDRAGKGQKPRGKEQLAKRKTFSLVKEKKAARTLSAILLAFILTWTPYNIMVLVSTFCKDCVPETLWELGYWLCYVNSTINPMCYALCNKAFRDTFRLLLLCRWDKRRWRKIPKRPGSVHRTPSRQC

[4] = biological target: T2, adrenergic receptor Alpha 2C (Homo sapiens, UniProt P18825); test: in vitro antagonistic activity, adrenergic Alpha 2C; type: biochemical
T2 sequence (P18825 1-462): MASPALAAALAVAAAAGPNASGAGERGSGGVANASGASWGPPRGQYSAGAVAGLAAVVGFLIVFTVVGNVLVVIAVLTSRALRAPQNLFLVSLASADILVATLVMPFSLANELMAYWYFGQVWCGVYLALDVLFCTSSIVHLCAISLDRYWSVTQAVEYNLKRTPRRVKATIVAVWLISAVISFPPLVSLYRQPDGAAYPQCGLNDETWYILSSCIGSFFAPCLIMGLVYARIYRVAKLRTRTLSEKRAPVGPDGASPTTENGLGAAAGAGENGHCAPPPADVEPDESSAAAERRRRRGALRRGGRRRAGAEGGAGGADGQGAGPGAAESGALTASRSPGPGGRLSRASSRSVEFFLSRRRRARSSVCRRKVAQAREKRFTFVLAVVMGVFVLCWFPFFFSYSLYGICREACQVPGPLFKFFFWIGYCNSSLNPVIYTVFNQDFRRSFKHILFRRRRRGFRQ

[5] = biological target: T3, adrenergic receptor Alpha 2B (Homo sapiens, UniProt P18089); test: in vitro antagonistic activity, adrenergic Alpha 2B; type: biochemical
T3 sequence (P18089 1-450): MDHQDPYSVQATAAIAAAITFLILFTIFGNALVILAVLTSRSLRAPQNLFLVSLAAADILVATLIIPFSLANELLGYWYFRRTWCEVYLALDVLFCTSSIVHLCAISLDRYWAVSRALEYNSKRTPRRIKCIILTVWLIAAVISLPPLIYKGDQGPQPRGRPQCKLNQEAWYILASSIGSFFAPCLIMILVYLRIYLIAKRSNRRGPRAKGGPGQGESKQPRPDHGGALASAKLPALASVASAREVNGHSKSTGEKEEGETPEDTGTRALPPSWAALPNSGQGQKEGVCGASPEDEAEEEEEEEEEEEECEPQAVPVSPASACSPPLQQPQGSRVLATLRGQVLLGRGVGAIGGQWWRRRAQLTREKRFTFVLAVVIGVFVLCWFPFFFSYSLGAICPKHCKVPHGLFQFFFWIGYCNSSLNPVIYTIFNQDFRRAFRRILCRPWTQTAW

[6] = biological target: T4, adrenergic receptor Alpha 1B (Homo sapiens, UniProt P35368); test: in vitro antagonistic activity, adrenergic Alpha 1B; type: biochemical
T4 sequence (P35368 1-520): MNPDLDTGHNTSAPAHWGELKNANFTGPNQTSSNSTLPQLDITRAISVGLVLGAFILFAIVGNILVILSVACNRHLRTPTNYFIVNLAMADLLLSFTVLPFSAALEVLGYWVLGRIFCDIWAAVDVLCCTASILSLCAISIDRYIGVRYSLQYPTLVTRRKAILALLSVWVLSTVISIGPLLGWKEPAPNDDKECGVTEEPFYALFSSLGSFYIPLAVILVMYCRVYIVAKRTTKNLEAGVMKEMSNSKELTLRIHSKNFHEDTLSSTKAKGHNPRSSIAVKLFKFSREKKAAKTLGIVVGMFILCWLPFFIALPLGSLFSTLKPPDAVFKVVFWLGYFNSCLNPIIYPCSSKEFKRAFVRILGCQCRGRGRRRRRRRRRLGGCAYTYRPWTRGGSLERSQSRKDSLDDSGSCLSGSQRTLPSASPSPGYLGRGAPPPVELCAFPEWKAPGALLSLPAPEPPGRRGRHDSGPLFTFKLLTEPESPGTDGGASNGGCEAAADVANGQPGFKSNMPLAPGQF

[7] = biological target: T5, cholinergic muscarinic receptor 4 (Homo sapiens, UniProt P08173); test: in vitro antagonistic activity, muscarinic 4; type: biochemical
T5 sequence (P08173 1-479): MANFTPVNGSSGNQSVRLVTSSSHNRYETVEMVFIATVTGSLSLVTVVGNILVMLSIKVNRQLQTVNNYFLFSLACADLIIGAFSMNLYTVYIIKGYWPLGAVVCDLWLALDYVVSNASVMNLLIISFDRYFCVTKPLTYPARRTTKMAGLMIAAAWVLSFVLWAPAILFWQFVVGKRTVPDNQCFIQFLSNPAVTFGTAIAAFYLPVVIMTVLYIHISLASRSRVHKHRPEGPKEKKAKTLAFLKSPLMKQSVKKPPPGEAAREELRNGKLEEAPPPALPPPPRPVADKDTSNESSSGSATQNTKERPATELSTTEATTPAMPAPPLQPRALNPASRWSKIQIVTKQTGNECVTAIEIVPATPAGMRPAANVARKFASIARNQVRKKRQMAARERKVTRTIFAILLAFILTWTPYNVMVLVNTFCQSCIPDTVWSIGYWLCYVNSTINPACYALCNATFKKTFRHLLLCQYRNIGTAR

[8] = biological target: cholinergic muscarinic receptor 3 (Homo sapiens, UniProt P20309); test: in vitro antagonistic activity, muscarinic 3; type: biochemical
cholinergic muscarinic receptor 3, sequence (P20309 whole entry): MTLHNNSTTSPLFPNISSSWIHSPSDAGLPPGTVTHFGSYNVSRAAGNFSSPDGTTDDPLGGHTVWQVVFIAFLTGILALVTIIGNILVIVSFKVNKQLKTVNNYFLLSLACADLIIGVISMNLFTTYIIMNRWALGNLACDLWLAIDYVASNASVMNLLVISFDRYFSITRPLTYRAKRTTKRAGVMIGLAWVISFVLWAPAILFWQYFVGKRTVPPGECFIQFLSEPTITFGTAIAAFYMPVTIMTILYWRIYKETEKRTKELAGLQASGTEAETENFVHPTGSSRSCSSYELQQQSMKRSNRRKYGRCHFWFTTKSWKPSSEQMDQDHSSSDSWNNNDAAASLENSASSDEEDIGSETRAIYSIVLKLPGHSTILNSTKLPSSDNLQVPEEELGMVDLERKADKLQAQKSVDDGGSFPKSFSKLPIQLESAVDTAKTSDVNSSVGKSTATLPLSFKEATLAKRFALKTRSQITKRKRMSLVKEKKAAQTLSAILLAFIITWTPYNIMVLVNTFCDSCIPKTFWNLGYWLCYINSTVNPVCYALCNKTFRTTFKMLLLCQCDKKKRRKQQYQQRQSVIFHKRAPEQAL

[9] = biological target: histamine H1 receptor (Homo sapiens, UniProt P35367); test: in vitro antagonistic activity, histamine H1; type: biochemical
histamine H1 receptor, sequence (P35367 whole entry, species assumed): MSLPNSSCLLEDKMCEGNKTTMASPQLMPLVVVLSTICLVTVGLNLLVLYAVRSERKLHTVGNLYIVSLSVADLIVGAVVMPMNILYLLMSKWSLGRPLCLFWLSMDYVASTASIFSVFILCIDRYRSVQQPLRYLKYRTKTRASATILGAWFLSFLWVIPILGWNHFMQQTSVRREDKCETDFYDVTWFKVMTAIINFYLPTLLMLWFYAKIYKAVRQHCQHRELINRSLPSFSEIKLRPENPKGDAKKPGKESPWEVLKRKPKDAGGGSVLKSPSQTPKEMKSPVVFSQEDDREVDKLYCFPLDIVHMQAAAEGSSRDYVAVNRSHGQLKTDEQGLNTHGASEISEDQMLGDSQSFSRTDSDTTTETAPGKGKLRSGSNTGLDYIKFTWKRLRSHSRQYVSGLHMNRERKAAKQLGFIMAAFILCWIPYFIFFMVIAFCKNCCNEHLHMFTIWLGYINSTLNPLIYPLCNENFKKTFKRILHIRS

[10] = biological target: T6, serotonin receptor 1A (Homo sapiens, UniProt P08908); test: in vitro antagonistic activity, serotonin 1A; type: biochemical
T6 sequence (P08908 1-422): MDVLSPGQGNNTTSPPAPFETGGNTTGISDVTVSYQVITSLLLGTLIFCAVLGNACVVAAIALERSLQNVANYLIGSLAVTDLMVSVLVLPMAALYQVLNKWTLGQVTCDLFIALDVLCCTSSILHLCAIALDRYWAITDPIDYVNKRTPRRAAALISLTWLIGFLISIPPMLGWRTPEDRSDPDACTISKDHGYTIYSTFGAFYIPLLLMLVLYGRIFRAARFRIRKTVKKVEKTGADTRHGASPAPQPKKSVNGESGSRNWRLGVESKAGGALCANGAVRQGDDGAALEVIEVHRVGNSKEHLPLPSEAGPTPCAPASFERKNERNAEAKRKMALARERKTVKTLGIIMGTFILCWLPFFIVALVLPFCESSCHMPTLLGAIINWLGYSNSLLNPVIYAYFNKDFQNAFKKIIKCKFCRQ

[11] = biological target: T7, dopamine D4 receptor (Homo sapiens, UniProt P21917); test: in vitro antagonistic activity, dopamine D4; type: biochemical
T7 sequence (P21917 1-419): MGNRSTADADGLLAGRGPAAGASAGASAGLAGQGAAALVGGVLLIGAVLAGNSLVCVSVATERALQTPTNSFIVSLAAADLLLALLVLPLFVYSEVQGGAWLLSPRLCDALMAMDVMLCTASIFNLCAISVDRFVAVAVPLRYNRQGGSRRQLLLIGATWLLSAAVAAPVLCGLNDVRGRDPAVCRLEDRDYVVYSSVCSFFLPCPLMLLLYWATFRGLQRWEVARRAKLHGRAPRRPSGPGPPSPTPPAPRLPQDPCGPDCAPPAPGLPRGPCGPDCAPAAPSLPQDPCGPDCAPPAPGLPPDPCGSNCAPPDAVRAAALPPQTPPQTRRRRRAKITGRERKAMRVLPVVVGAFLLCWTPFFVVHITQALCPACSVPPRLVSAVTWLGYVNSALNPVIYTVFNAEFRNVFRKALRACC

[12] = biological target: T8, cholinergic muscarinic receptor 5 (Homo sapiens, UniProt P08912); test: in vitro antagonistic activity, muscarinic 5; type: biochemical
T8 sequence (P08912 1-532): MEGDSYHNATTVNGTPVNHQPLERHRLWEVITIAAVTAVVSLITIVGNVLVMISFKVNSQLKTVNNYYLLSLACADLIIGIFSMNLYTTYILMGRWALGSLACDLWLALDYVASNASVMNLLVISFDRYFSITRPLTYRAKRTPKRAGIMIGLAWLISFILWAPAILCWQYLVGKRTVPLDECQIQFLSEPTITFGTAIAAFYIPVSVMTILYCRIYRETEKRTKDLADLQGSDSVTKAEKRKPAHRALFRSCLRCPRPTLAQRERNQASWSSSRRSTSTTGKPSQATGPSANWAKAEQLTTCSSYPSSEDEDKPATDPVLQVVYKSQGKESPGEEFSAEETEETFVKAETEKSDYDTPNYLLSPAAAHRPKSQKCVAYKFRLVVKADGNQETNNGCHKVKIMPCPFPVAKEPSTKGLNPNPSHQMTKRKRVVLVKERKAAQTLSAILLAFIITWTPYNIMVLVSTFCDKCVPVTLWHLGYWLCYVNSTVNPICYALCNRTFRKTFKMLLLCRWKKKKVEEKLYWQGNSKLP

[13] = biological target: Delta (DOP) receptor (Homo sapiens, UniProt P41143); test: in vitro pharmacology at Delta (DOP) receptor; type: biochemical
Delta (DOP) receptor, sequence (P41143 whole entry): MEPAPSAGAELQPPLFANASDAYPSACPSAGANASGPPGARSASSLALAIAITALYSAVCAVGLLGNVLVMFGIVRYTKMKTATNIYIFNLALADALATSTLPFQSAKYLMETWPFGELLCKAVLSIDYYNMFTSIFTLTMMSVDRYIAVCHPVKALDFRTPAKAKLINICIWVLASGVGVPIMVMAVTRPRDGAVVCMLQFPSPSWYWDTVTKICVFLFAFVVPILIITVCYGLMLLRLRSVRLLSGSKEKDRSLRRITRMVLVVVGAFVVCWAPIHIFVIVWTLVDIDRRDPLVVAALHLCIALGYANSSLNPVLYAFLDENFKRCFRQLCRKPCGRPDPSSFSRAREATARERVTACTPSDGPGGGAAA

SMILES	Receptor Sigma: affinity [1]	Receptor Sigma: affinity ([1]; listed as compound 1)	opioid withdrawal signs [2]	activity at cholinergic muscarinic receptor 1 [3]	activity at adrenergic receptor Alpha 2C [4]	activity at adrenergic receptor Alpha 2B [5]	activity at adrenergic receptor Alpha 1B [6]	activity at cholinergic muscarinic receptor 4 [7]	activity at cholinergic muscarinic receptor 3 [8]	activity at histamine H1 receptor [9]	activity at serotonin receptor 1A [10]	activity at dopamine D4 receptor [11]	activity at cholinergic muscarinic receptor 5 [12]	Receptor Delta (DOP): mode of action [13]
CCC(=O)NC1CC(C)N(CCc2ccccc2)CC1C (centres unmarked) [Compound 1, N-[2,5-dimethyl-1-(2-phenylethyl)piperidin-4-yl]propanamide]	High Affinity	further activity	few if any opioid withdrawal signs	antagonistic activity	antagonistic activity	antagonistic activity	antagonistic activity	antagonistic activity	antagonistic activity	antagonistic activity	antagonistic activity	antagonistic activity	antagonistic activity	Antagonist
C=CCN1CC[C@]23c4c5ccc(O)c4O[C@H]2C(=O)CC[C@@]3(O)[C@H]1C5 [Naloxone, reference compound]	Weak	–	withdrawal effects	–	–	–	–	–	–	–	–	–	–	–
O=C1CC[C@@]2(O)[C@H]3Cc4ccc(O)c5c4[C@@]2(CCN3CC2CC2)[C@H]1O5 [Naltrexone, reference compound]	Weak	–	–	–	–	–	–	–	–	–	–	–	–	–
